In patent publication US10118935B2, “Melampomagnolide B dimers” (priority 2014, dated 2018):

Columns and labels:
RPMI-8226 = assay: NCI 60 cell line five dose, Leukemia
LOX IMVI = assay: NCI 60 cell line five dose, Melanoma
MALME-3M = assay: NCI 60 cell line five dose, Melanoma; settings: MAL1ME-3M
SK-MEL-5 = assay: NCI 60 cell line five dose, Melanoma
UACC-257 = assay: NCI 60 cell line five dose, Melanoma
SNB-75 = assay: NCI 60 cell line five dose, CNS Cancer
U251 = assay: NCI 60 cell line five dose, CNS Cancer
HCC-2998 = assay: NCI 60 cell line five dose, Colon Cancer
SW-620 = assay: NCI 60 cell line five dose, Colon Cancer
786-0 = assay: NCI 60 cell line five dose, Renal Cancer
CAKI-1 = assay: NCI 60 cell line five dose, Renal Cancer
SN12C = assay: NCI 60 cell line five dose, Renal Cancer

## C=C1C(=O)O[C@H]2[C@H]1CC/C(COC(=O)NCCCCNC(=O)OC/C1=C/CC[C@@]3(C)O[C@H]3[C@H]3OC(=O)C(=C)[C@@H]3CC1)=C\CC[C@@]1(C)O[C@@H]21 [JVM 3-54, bis(((1aR,7aS,10aS,10bS,E)-1a-Methyl-8-methylene-9-oxo-1a,2,3,6,7,7a,8,9,10a,10b-decahydrooxireno[2′,3′:9,10]cyclodeca[1,2-b]furan-5-yl)methyl)butane-1,4-diyldicarbamate]
RPMI-8226
  GI50: 0.547 µM
  TGI: 3.08 µM
RPMI-8226; Log10 Concentration −4.0
  Percent Growth: −42%
RPMI-8226; Log10 Concentration −5.0
  Percent Growth: −33%
RPMI-8226; Log10 Concentration −6.0
  Percent Growth: 31%
RPMI-8226; Log10 Concentration −7.0
  Percent Growth: 102%
RPMI-8226; Log10 Concentration −8.0
  Percent Growth: 101%
RPMI-8226; read-out: LC50
  CC50: > 100 µM
LOX IMVI
  GI50: 0.519 µM
  TGI: 1.92 µM
LOX IMVI; Log10 Concentration −4.0
  Percent Growth: −74%
LOX IMVI; Log10 Concentration −5.0
  Percent Growth: −84%
LOX IMVI; Log10 Concentration −6.0
  Percent Growth: 33%
LOX IMVI; Log10 Concentration −7.0
  Percent Growth: 93%
LOX IMVI; Log10 Concentration −8.0
  Percent Growth: 93%
LOX IMVI; read-out: LC50
  CC50: 5.15 µM
MALME-3M
  GI50: 0.452 µM
  TGI: 2.19 µM
MALME-3M; Log10 Concentration −4.0
  Percent Growth: −64%
MALME-3M; Log10 Concentration −5.0
  Percent Growth: −56%
MALME-3M; Log10 Concentration −6.0
  Percent Growth: 29%
MALME-3M; Log10 Concentration −7.0
  Percent Growth: 90%
MALME-3M; Log10 Concentration −8.0
  Percent Growth: 95%
MALME-3M; read-out: LC50
  CC50: 8.43 µM
SK-MEL-5
  GI50: 3.33 µM
  TGI: 11.8 µM
SK-MEL-5; Log10 Concentration −4.0
  Percent Growth: −85%
SK-MEL-5; Log10 Concentration −5.0
  Percent Growth: 7%
SK-MEL-5; Log10 Concentration −6.0
  Percent Growth: 98%
SK-MEL-5; Log10 Concentration −7.0
  Percent Growth: 100%
SK-MEL-5; Log10 Concentration −8.0
  Percent Growth: 97%
SK-MEL-5; read-out: LC50, SK-MEL-6
  CC50: 41.4 µM
UACC-257
  GI50: 1.68 µM
  TGI: 4.99 µM
UACC-257; Log10 Concentration −4.0
  Percent Growth: −82%
UACC-257; Log10 Concentration −5.0
  Percent Growth: −32%
UACC-257; Log10 Concentration −6.0
  Percent Growth: 74%
UACC-257; Log10 Concentration −7.0
  Percent Growth: 92%
UACC-257; Log10 Concentration −8.0
  Percent Growth: 95%
UACC-257; read-out: LC50
  CC50: 22.9 µM
SNB-75
  GI50: 2.19 µM
  TGI: 16.5 µM
SNB-75; Log10 Concentration −4.0
  Percent Growth: −65%
SNB-75; Log10 Concentration −5.0
  Percent Growth: 18%
SNB-75; Log10 Concentration −6.0
  Percent Growth: 67%
SNB-75; Log10 Concentration −7.0
  Percent Growth: 64%
SNB-75; Log10 Concentration −8.0
  Percent Growth: 70%
SNB-75; read-out: LC50
  CC50: 66.3 µM
U251
  GI50: 2.94 µM
  TGI: 9.83 µM
U251; Log10 Concentration −4.0
  Percent Growth: −95%
U251; Log10 Concentration −5.0
  Percent Growth: −1%
U251; Log10 Concentration −6.0
  Percent Growth: 95%
U251; Log10 Concentration −7.0
  Percent Growth: 101%
U251; Log10 Concentration −8.0
  Percent Growth: 99%
U251; read-out: LC50
  CC50: 33.3 µM
HCC-2998
  GI50: 2.35 µM
  TGI: 4.78 µM
HCC-2998; Log10 Concentration −4.0
  Percent Growth: −78%
HCC-2998; Log10 Concentration −5.0
  Percent Growth: −52%
HCC-2998; Log10 Concentration −6.0
  Percent Growth: 110%
HCC-2998; Log10 Concentration −7.0
  Percent Growth: 99%
HCC-2998; Log10 Concentration −8.0
  Percent Growth: 97%
HCC-2998; read-out: LC50
  CC50: 9.73 µM
SW-620
  GI50: 0.586 µM
  TGI: 2.04 µM
SW-620; Log10 Concentration −4.0
  Percent Growth: −72%
SW-620; Log10 Concentration −5.0
  Percent Growth: −79%
SW-620; Log10 Concentration −6.0
  Percent Growth: 35%
SW-620; Log10 Concentration −7.0
  Percent Growth: 98%
SW-620; Log10 Concentration −8.0
  Percent Growth: 100%
SW-620; read-out: LC50
  CC50: 5.56 µM
786-0
  GI50: 1.99 µM
  TGI: 4.25 µM
786-0; Log10 Concentration −4.0
  Percent Growth: −91%
786-0; Log10 Concentration −5.0
  Percent Growth: −56%
786-0; Log10 Concentration −6.0
  Percent Growth: 95%
786-0; Log10 Concentration −7.0
  Percent Growth: 91%
786-0; Log10 Concentration −8.0
  Percent Growth: 98%
786-0; read-out: LC50
  CC50: 9.11 µM
CAKI-1
  GI50: 10.8 µM
  TGI: 23 µM
CAKI-1; Log10 Concentration −4.0
  Percent Growth: −97%
CAKI-1; Log10 Concentration −5.0
  Percent Growth: 55%
CAKI-1; Log10 Concentration −6.0
  Percent Growth: 91%
CAKI-1; Log10 Concentration −7.0
  Percent Growth: 90%
CAKI-1; Log10 Concentration −8.0
  Percent Growth: 93%
CAKI-1; read-out: LC50
  CC50: 49.1 µM
SN12C
  GI50: 2.75 µM
